Common to all, as to experiment: Antibacterial activity (MIC), agar dilution
Holding throughout (format): cell-based

The subject of one experiment is Aci. antitratus A-6. To be noted: 20 h, Aci. antitratus A-6; 10^6 cells per ml; 37° C., 20 hours; read-out: MIC. The text has this: (§1) The amount of bacteria inoculated was 10^4 cells per plate (10^6 cells per ml).
The test system of the next experiment is E. coli NIHJ JC-2. To be noted: Escherichia coli, NIHJJC2, 20 h, E. coli NIHJ JC-2; 10^6 cells per ml; 37° C., 20 hours; read-out: MIC.
From the text: as §1

Another experiment has as its system E. coli TK-111. As to conditions: Escherichia coli, TK111, 20 h, E. coli TK-111; 10^6 cells per ml; 37° C., 20 hours; read-out: MIC.
From the text: as §1

A further experiment deals with Ent. cloacae IID977. To be noted: Enterobacter cloacae, IID977, 20 h, Ent. cloacae IID977; 10^6 cells per ml; 37° C., 20 hours; read-out: MIC.
From the text: as §1

The test system of another experiment is Kl. pneumoniae Y-41. To be noted: Klebsiella pneumoniae, Y41, 10^6 cells per ml, 37° C., 20 hours, read-out: MIC.
From the text: as §1

A further experiment concerns Kl. pneumoniae Y-50. As to conditions: Klebsiella pneumoniae, Y50, 20 h, 10^6 cells per ml, 37° C., read-out: MIC.
From the text: as §1

The test system of a further experiment is Pro. mirabilis T-111. To be noted: Proteus mirabilis, 37° C.
From the text: as §1

Another experiment concerns Pro. morganii T-216. To be noted: Morganella morganii, T216, 10^6 cells per ml, 37° C., 20 hours, read-out: MIC.
From the text: as §1

A further experiment deals with Pro. vulgaris GN3027. To be noted: Proteus vulgaris, GN3027, 20 h, Pro. vulgaris GN3027; 10^6 cells per ml; 37° C., 20 hours; read-out: MIC.
From the text: as §1

For another experiment, the system named is Ps. aeruginosa IFO3445. As to conditions: Pseudomonas aeruginosa, IFO3445, 20 h.
From the text: as §1

Another experiment concerns Ps. aeruginosa S-68. To be noted: Pseudomonas aeruginosa.
From the text: as §1

Another experiment deals with St. aureus FDA209P. As to conditions: Staphylococcus aureus, FDA209P, 20 h, St. aureus FDA209P; 10^6 cells per ml; 37° C., 20 hours; read-out: MIC.
From the text: as §1

The subject of a further experiment is E. coli TK-3*. As to conditions: Escherichia coli, 20 h, E. coli TK-3, penicillinase-producing; 10^6 cells per ml; read-out: MIC.
From the text: as §1
(§2) * Penicillinase-producing bacteria

In a further experiment the test system is Kl. pneumoniae Y-4*. As to conditions: Klebsiella pneumoniae, 20 h, Kl. pneumoniae Y-4, penicillinase-producing; 10^6 cells per ml; read-out: MIC.
From the text: as §1, §2

For a further experiment, the system named is Ps. aeruginosa GN3379*. To be noted: Pseudomonas aeruginosa, Ps. aeruginosa GN3379, penicillinase-producing, 10^6 cells per ml.
From the text: as §1, §2

A further experiment concerns St. aureus F-137*. As to conditions: Staphylococcus aureus, 20 h, St. aureus F-137, penicillinase-producing; 10^6 cells per ml; read-out: MIC.
From the text: as §1, §2

The next experiment relates to E. coli GN5482**. As to conditions: Escherichia coli, 20 h; E. coli GN5482, cephalospolinase-producing; 10^6 cells per ml; read-out: MIC.
From the text: as §1
(§3) ** Cephalospolinase-producing bacteria

The next experiment has as its system Pro. vulgaris GN76**. To be noted: Proteus vulgaris, 20 h; Pro. vulgaris GN76, cephalospolinase-producing; 10^6 cells per ml; read-out: MIC.
From the text: as §1, §3

A further experiment deals with Ps. aeruginosa GN918**. To be noted: Pseudomonas aeruginosa, 20 h; Ps. aeruginosa GN918, cephalospolinase-producing; 10^6 cells per ml; read-out: MIC.
From the text: as §1, §3

[1] abbreviates: S68, Ps. aeruginosa S-68, 10^6 cells per ml, 37° C., 20 hours, read-out: MIC.
Where [2] appears, read: T111, 10^6 cells per ml, 20 hours, read-out: MIC.

Values after ≈ are worked out from the molar mass of the structure shown. Where two headings read alike, the source gives them in different places.

These results are taken from patent publication US4698352A, “4-oxo-1,4-dihydronicotinic acid derivatives, salts thereof, and antibacterial agents containing the same” (Toyama Chemical Co., Ltd., priority 1982, dated 1987).

By MIC is commonly meant the least concentration at which growth counts as inhibited.

With `CN(C)c1ccc(-c2cc(=O)c(C(=O)O)cn2-c2ccc(O)c(F)c2)cc1`, the MIC in the experiment with Aci. antitratus A-6 came out at 0.39 µg/mL (≈ 1.06 µM); in the experiment on E. coli NIHJ JC-2, 0.39 µg/mL (≈ 1.06 µM); with E. coli TK-111 it was 0.1 µg/mL (≈ 0.271 µM); in the experiment with Ent. cloacae IID977 it was 1.56 µg/mL (≈ 4.23 µM); in the experiment on Kl. pneumoniae Y-41 it was 3.13 µg/mL (≈ 8.5 µM); in the experiment with Kl. pneumoniae Y-50 it was 0.39 µg/mL (≈ 1.06 µM). The MIC stood at 3.13 µg/mL (≈ 8.5 µM) against Pro. mirabilis T-111 (T111, 20 h, 10^6 cells per ml); 1.56 µg/mL (≈ 4.23 µM) with Pro. morganii T-216; 0.2 µg/mL (≈ 0.543 µM) with Pro. vulgaris GN3027; 3.13 µg/mL (≈ 8.5 µM) with Ps. aeruginosa IFO3445; 1.56 µg/mL (≈ 4.23 µM) in the experiment on Ps. aeruginosa S-68 (setting [1]); 0.39 µg/mL (≈ 1.06 µM) with St. aureus FDA209P. The minimal inhibitory concentration (MIC) in the experiment with E. coli TK-3* is 0.78 µg/mL (≈ 2.12 µM); in the experiment on Kl. pneumoniae Y-4* it was 3.13 µg/mL (≈ 8.5 µM); with Ps. aeruginosa GN3379* (GN3379, 20 h) it was 3.13 µg/mL (≈ 8.5 µM); with St. aureus F-137* it was 0.39 µg/mL (≈ 1.06 µM); with E. coli GN5482**, at most 0.05 µg/mL; in the experiment with Pro. vulgaris GN76**, 0.78 µg/mL (≈ 2.12 µM). Further, the minimum inhibitory concentration (MIC) in the experiment with Ps. aeruginosa GN918** was 12.5 µg/mL (≈ 33.9 µM).

As to `O=C(O)c1cn(-c2ccc(O)cc2F)c(-c2cc3ccccc3s2)cc1=O`, the MIC with Aci. antitratus A-6 was 0.1 µg/mL (≈ 0.262 µM); with E. coli NIHJ JC-2, 0.2 µg/mL (≈ 0.524 µM); in the experiment with E. coli TK-111, at most 0.05 µg/mL; in the experiment with Ent. cloacae IID977, 0.39 µg/mL (≈ 1.02 µM); in the experiment on Kl. pneumoniae Y-41, 1.56 µg/mL (≈ 4.09 µM); in the experiment on Kl. pneumoniae Y-50, 0.2 µg/mL (≈ 0.524 µM). The minimum inhibitory concentration (MIC) was 0.78 µg/mL (≈ 2.05 µM) in the experiment on Pro. mirabilis T-111 (setting [2]); 0.78 µg/mL (≈ 2.05 µM) in the experiment on Pro. morganii T-216; at most 0.05 µg/mL with Pro. vulgaris GN3027; 1.56 µg/mL (≈ 4.09 µM) in the experiment with Ps. aeruginosa IFO3445; 1.56 µg/mL (≈ 4.09 µM) in the experiment with Ps. aeruginosa S-68 (S68, 20 h); at most 0.05 µg/mL in the experiment on St. aureus FDA209P. Moreover, the MIC was 0.39 µg/mL (≈ 1.02 µM) in the experiment on E. coli TK-3*; 1.56 µg/mL (≈ 4.09 µM) with Kl. pneumoniae Y-4*; 1.56 µg/mL (≈ 4.09 µM) with Ps. aeruginosa GN3379* (GN3379, 20 h); at most 0.05 µg/mL in the experiment on St. aureus F-137*; at most 0.05 µg/mL in the experiment with E. coli GN5482**; 0.2 µg/mL (≈ 0.524 µM) in the experiment with Pro. vulgaris GN76**. Moreover, in the experiment on Ps. aeruginosa GN918**, the MIC was 3.13 µg/mL (≈ 8.21 µM).

Regarding `CC(=O)Oc1ccc(-n2cc(C(=O)O)c(=O)cc2-c2cc3ccccc3s2)c(F)c1`, the MIC in the experiment on Aci. antitratus A-6 was 0.2 µg/mL (≈ 0.472 µM); in the experiment on E. coli NIHJ JC-2, 0.39 µg/mL (≈ 0.921 µM); in the experiment on E. coli TK-111, at most 0.05 µg/mL; in the experiment with Ent. cloacae IID977, 0.78 µg/mL (≈ 1.84 µM); in the experiment on Kl. pneumoniae Y-41 it was 3.13 µg/mL (≈ 7.39 µM); in the experiment with Kl. pneumoniae Y-50, 0.39 µg/mL (≈ 0.921 µM). For the same compound, the MIC in the experiment with Pro. mirabilis T-111 (setting [2]) worked out at 1.56 µg/mL (≈ 3.68 µM); with Pro. morganii T-216, 1.56 µg/mL (≈ 3.68 µM); with Pro. vulgaris GN3027 it was 0.1 µg/mL (≈ 0.236 µM); against Ps. aeruginosa IFO3445, 3.13 µg/mL (≈ 7.39 µM); with Ps. aeruginosa S-68 (setting [1]) it was 1.56 µg/mL (≈ 3.68 µM); in the experiment with St. aureus FDA209P, 0.1 µg/mL (≈ 0.236 µM). The MIC with E. coli TK-3* is 0.39 µg/mL (≈ 0.921 µM); in the experiment with Kl. pneumoniae Y-4* it was 3.13 µg/mL (≈ 7.39 µM); against Ps. aeruginosa GN3379* (GN3379, 20 h), 3.13 µg/mL (≈ 7.39 µM); in the experiment on St. aureus F-137*, at most 0.05 µg/mL; in the experiment with E. coli GN5482**, at most 0.05 µg/mL; in the experiment with Pro. vulgaris GN76** it was 0.39 µg/mL (≈ 0.921 µM). Besides, the MIC in the experiment on Ps. aeruginosa GN918** was 6.25 µg/mL (≈ 14.8 µM).

`O=C(O)c1cn(-c2ccc(O)cc2)c(-c2ccc(-c3cccs3)cc2)cc1=O`: the MIC with Aci. antitratus A-6 is 0.1 µg/mL (≈ 0.257 µM); in the experiment on E. coli NIHJ JC-2, 0.1 µg/mL (≈ 0.257 µM); in the experiment with E. coli TK-111, at most 0.05 µg/mL; in the experiment on Ent. cloacae IID977, 0.39 µg/mL (≈ 1 µM); with Kl. pneumoniae Y-41, 1.56 µg/mL (≈ 4.01 µM); in the experiment with Kl. pneumoniae Y-50, 0.2 µg/mL (≈ 0.514 µM). Besides, the MIC in the experiment on Pro. mirabilis T-111 (setting [2]) was 0.39 µg/mL (≈ 1 µM); in the experiment with Pro. morganii T-216 it was 0.39 µg/mL (≈ 1 µM); with Pro. vulgaris GN3027 it was at most 0.05 µg/mL; against Ps. aeruginosa IFO3445, 1.56 µg/mL (≈ 4.01 µM); in the experiment on Ps. aeruginosa S-68 (setting [1]), 3.13 µg/mL (≈ 8.04 µM); with St. aureus FDA209P, at most 0.05 µg/mL. The MIC was 0.39 µg/mL (≈ 1 µM) in the experiment on E. coli TK-3*; 0.78 µg/mL (≈ 2 µM) in the experiment on Kl. pneumoniae Y-4*; 3.13 µg/mL (≈ 8.04 µM) in the experiment with Ps. aeruginosa GN3379* (20 h, read-out: MIC); at most 0.05 µg/mL in the experiment on St. aureus F-137*; at most 0.05 µg/mL in the experiment on E. coli GN5482**; 0.2 µg/mL (≈ 0.514 µM) with Pro. vulgaris GN76**. Moreover, in the experiment on Ps. aeruginosa GN918**, the minimal inhibitory concentration (MIC) was found to be 6.25 µg/mL (≈ 16 µM).
